Reference: patent US20250074911A1, “MACROCYCLIC BTK INHIBITORS” (Crossfire Oncology Holding B.V., priority 2021, published 2025)
“And” between values parts separate entries of the source, which are not always exact repeats. Identical values can stand only once.

Tests used:
[1] = target: full-length wt-BTK enzyme (Homo sapiens (Human), UniProt Q06187); experiment: Biochemical kinase assay wt-BTK (IMAP)
In short: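 Compound and enzyme (final 1.2 nM) were pre-incubated for 1 h at RT, after which the reaction was started with 4 μM ATP plus 50 nM fluorescein-MBP substrate peptide. After 2 h in the dark, the IMAP progressive binding reagent stopped the reaction, and phosphorylation was read by fluorescence polarization.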

[2] = target: full-length BTK C481S enzyme (Homo sapiens (Human), UniProt Q06187, C481S); experiment: Biochemical kinase assay BTK C481S (IMAP)
Sequence of full-length BTK C481S enzyme (Q06187 whole entry C481S): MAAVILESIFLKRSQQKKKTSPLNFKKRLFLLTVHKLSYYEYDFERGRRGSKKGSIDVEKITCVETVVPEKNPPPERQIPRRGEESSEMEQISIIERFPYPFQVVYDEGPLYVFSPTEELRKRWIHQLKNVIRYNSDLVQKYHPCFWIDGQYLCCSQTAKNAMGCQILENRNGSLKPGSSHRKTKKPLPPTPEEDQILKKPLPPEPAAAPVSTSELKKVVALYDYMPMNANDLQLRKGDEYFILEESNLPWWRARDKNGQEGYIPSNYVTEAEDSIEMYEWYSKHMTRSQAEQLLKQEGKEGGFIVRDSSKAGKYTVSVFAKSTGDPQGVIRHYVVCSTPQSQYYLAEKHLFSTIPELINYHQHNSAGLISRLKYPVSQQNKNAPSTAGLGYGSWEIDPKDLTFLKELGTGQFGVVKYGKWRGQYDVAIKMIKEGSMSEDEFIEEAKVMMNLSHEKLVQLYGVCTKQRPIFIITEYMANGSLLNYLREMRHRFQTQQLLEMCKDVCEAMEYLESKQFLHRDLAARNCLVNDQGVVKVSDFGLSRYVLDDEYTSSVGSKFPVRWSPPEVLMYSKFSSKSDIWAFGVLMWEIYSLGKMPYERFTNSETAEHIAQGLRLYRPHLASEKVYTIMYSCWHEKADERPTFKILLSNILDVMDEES
In short: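 IC50 values come from IMAP fluorescence polarization after quenching with progressive binding solution. The reaction ran 2 h at room temperature in the dark with 1.2 nM full-length C481S enzyme, 7 μM ATP and 50 nM fluorescein-labelled MBP-derived peptide, following a 1 h dark pre-incubation of compound with enzyme.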

[3] = system: wt-REC-1 mantle cell lymphoma cells; experiment: Cell proliferation assay wt-REC-1 (ATPlite, 72 hours); format: cell-based; conditions: 72 h; read-out: IC50 wt-REC-1
In short: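 Luminescent viability read over 72 h, start-of-incubation signal recorded separately to separate growth from cell death. Percentage growth referenced to compound-free 0.3% DMSO wells; IC50 from 4-parameter logistic fit.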

REC-1 T474I cell lines = experiment: Cell proliferation assay REC-1 BTK T474I knock-in cells (ATPlite, 72 hours); format: cell-based; conditions: Homo sapiens, Rec1; 72 hours; read-out: IC50 REC-1 T474I
In short: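 REC-1 cells carrying CRISPR knock-in mutant BTK, single-cell cloned and sequence-confirmed, were exposed to compound for 72 h and read by ATPlite luminescence. Percentage growth was calculated against the signal at the start of incubation and against untreated 0.3% DMSO wells as maximum growth.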

wt-BTK = wt-BTK (Homo sapiens (Human), UniProt Q06187); experiment: Binding kinetics measurements (Surface Plasmon Resonance) on wt-BTK; conditions: for Kd: binding affinity by Surface Plasmon Resonance (SPR); for Tau (h) wt-BTK (Act): target residence time, SPR
Sequence of wt-BTK (Q06187 whole entry): as the sequence (Q06187 whole entry C481S) above, with S481C counted along it
In short: (§1)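 Constants come from single-cycle kinetics: five rising compound injections (3.16-316 nM) at 30 μl/min and 22° C over streptavidin-captured BTK (wild type or mutant), running buffer containing 1% DMSO. Double referencing applied; induced-fit binders fitted to a two-state model; duplicates geometrically averaged; residence time derived.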

BTK C481S = BTK C481S (Homo sapiens (Human), UniProt Q06187, C481S); experiment: Binding kinetics measurements (Surface Plasmon Resonance) on BTK C481S; conditions: for Kd: binding affinity by Surface Plasmon Resonance (SPR); for Tau (h) BTK C418S (Act): target residence time for BTK C481S, SPR
Sequence of BTK C481S (Q06187 whole entry C481S): as the sequence (Q06187 whole entry C481S) above
In short: as §1

BTK T316A = BTK T316A (Homo sapiens (Human), UniProt Q06187, T316A); experiment: Binding kinetics measurements (Surface Plasmon Resonance) on BTK T316A; conditions: for Kd: binding affinity by Surface Plasmon Resonance (SPR); for Tau (h) BTK T316A (Act): target residence time, SPR
Sequence of BTK T316A (Q06187 whole entry T316A): as the sequence (Q06187 whole entry C481S) above, with T316A, S481C counted along it
In short: as §1

BTK T474I = BTK T474I (Homo sapiens (Human), UniProt Q06187, T474I); experiment: Binding kinetics measurements (Surface Plasmon Resonance) on BTK T474I; conditions: for Kd: binding affinity by Surface Plasmon Resonance (SPR); for Tau (h) BTK T474I (Act): target residence time, SPR
Sequence of BTK T474I (Q06187 whole entry T474I): as the sequence (Q06187 whole entry C481S) above, with T474I, S481C counted along it
In short: as §1

BTK T474S = BTK T474S (Homo sapiens (Human), UniProt Q06187, T474S); experiment: Binding kinetics measurements (Surface Plasmon Resonance) on BTK T474S; conditions: for residence time: SPR binding kinetics, BTK T474S, read-out: Tau (h) BTK T474S (Act), target residence time (converted); for Kd: binding affinity by Surface Plasmon Resonance (SPR)
Sequence of BTK T474S (Q06187 whole entry T474S): as the sequence (Q06187 whole entry C481S) above, with T474S, S481C counted along it
In short: as §1

[4] = system: wt-TMD8 diffuse large B-cell lymphoma cells; experiment: Cell proliferation assay wt-TMD8 (ATPlite, 120 hours); format: cell-based; conditions: B-cell; wt-TMD8 cells, 120 hours, ATPlite; read-out: IC50 wt-TMD8
In short: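 Readout is percentage growth from ATPlite 1Step luminescence after 5 days (120 h) compound treatment of wt-TMD8 lymphoma cells (1600/well, RPMI-1640 + 10% FBS). Time-zero signal separates growth inhibition from cell kill; 0.3% DMSO wells without compound define maximal growth.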

Sequence of full-length wt-BTK enzyme (Q06187 whole entry): as the sequence (Q06187 whole entry C481S) above, with S481C counted along it

| SMILES | IC50 [1] [nM] | IC50 [2] [nM] | IC50 [3] [nM] | IC50 (REC-1 T474I cell lines) [nM] | Kd (wt-BTK) [nM] | Tau (h) wt-BTK (Act) (wt-BTK) [h] | Kd (BTK C481S) [nM] | Tau (h) BTK C418S (Act) (BTK C481S) [h] | Kd (BTK T316A) [nM] | Tau (h) BTK T316A (Act) (BTK T316A) [h] | Kd (BTK T474I) | residence time (BTK T474S) [h] | Kd (BTK T474S) [nM] | IC50 [4] [nM] | Tau (h) BTK T474I (Act) (BTK T474I) [h] |
| --- | --- | --- | --- | --- | --- | --- | --- | --- | --- | --- | --- | --- | --- | --- | --- |
| C[C@@H]1CCn2nc(-c3ccc(C(=O)Nc4cc(C(F)(F)F)ccn4)cc3)c3c(N)ncc(c32)/C=C/CCN2CC[C@H]2C(=O)N1 [Example 68] | < 5 | < 5 | < 100 | 500 to 10000 | < 5 | 4.48 | < 5 | 2.39 | < 5 | 3.79 | < 2 nM | 3.79 | < 3 | < 100 |  |
| C[C@@H]1CCn2nc(-c3ccc(C(=O)Nc4cc(C(F)(F)F)ccn4)cc3)c3c(N)ncc(c32)/C=C/COCCC(=O)N1 [Example 71] | < 5 | < 5 | < 100 | 100 to 500 | < 5 | 7.08 | < 5 | 4.52 | < 5 | 4.64 | < 2 nM | 4.32 | < 3 | < 100 | 0.52 |
| C[C@@H]1CCn2nc(-c3ccc(C(=O)Nc4cc(C(F)(F)F)ccn4)cc3)c3c(N)ncc(c32)/C=C/CCCC(=O)N1 [Example 76] | < 5 | < 5 | 100 to 1000 | 500 to 10000 | < 5 | 0.97 | < 5 | 1.63 | < 5 |  | 10 to 50 nM and < 5 nM | 1.85 | < 3 | < 100 |  |
| Nc1ncc2c3c1c(-c1ccc(C(=O)Nc4cc(C(F)(F)F)ccn4)cc1)nn3[C@@H]1CCCN(C1)C(=O)CCCCCC/C=C/2 [Example 79] | < 5 | < 5 | < 100 | 100 to 500 | < 5 | 8.24 | < 5 | 7.11 | < 5 | 3.23 | < 2 nM | 6.2 | < 3 | < 100 | 1.80 |
| Nc1ncc2c3c1c(-c1ccc(C(=O)Nc4cc(C(F)(F)F)ccn4)cc1)nn3[C@@H]1CCCN(C1)C(=O)CCCCCC(O)/C=C/2 (some centres unmarked) [Example 83] | < 5 | < 5 | < 100 | 500 to 10000 | < 5 | 2.95 | < 5 | 4.44 | < 5 | 1.36 | < 2 nM | 3.04 | < 3 | < 100 |  |
| Nc1ncc2c3c1c(-c1ccc(C(=O)Nc4cc(C(F)(F)F)ccn4)cc1)nn3[C@@H]1CCC[C@H](C1)C(=O)NCCCC/C=C\C2 [Example 85b] | < 5 | < 5 | < 100 | 100 to 500 | < 5 | 4.08 | < 5 | 7.12 |  | 2.50 | 10 to 50 nM and < 5 nM | 4.36 | < 3 | < 100 |  |
| Nc1ncc2c3c1c(-c1ccc(C(=O)Nc4ccccn4)cc1)nn3[C@@H]1CCC[C@H](C1)C(=O)NCCCC/C=C\C2 [Example 87b] | < 5 | < 5 | < 100 | 100 to 500 | < 5 |  | < 5 |  | < 5 |  | 10 to 50 nM and < 5 nM |  | < 3 | < 100 |  |
| Nc1ncc2c3c1c(-c1ccc(C(=O)Nc4ccccn4)cc1)nn3[C@@H]1CCC[C@H](C1)C(=O)NCCCCC/C=C\C2 [Example 88b] | < 5 | < 5 | < 100 | 500 to 10000 | < 5 | 1.37 | < 5 | 1.44 | < 5 |  | 10 to 50 nM and < 5 nM |  | < 3 | < 100 |  |
| Nc1ncc2c3c1c(-c1ccc(C(=O)Nc4ccccn4)cc1)nn3[C@@H]1CCC[C@H](C1)NC(=O)CCCC/C=C\C2 [Example 100b] | < 5 | < 5 | 100 to 1000 | 500 to 10000 | < 5 |  | < 5 | 0.98 | < 5 |  | 10 to 50 nM and < 5 nM |  | < 5 | < 100 |  |
| Nc1ncc2n3c(nc(-c4ccc(C(=O)Nc5cc(C(F)(F)F)ccn5)cc4)c13)[C@@H]1CCC[C@H](C1)NC(=O)CCCCC/C=C/2 [Example 131] | < 5 | < 5 | < 100 | < 100 | < 5 | 3.70 | < 5 | 5.25 | < 5 | 3.44 | < 2 nM | 9.61 | < 3 | < 100 | 2.37 |
| COc1ccc(F)cc1C(=O)NCc1ccc(-c2nn3c4c(cnc(N)c24)/C=C/CCCCCC(=O)N[C@H](C)CC3)cc1 [Example 139] | < 5 | < 5 | 100 to 1000 | 100 to 500 | < 5 | 1.38 | < 5 | 1.36 | < 5 |  | 10 to 50 nM and < 5 nM | 2.11 | < 3 | < 100 |  |
| Nc1ncc2c3c1c(-c1ccc(C(=O)Nc4cc(C(F)(F)F)ccn4)cc1)nn3[C@@H]1CCC[C@H](C1)NC(=O)[C@H]1CN(C/C=C/2)CCN1 [Example 141] | < 5 | < 5 | < 100 | < 100 | < 5 | >24 | < 5 | 4.45 | < 5 | 8.86 | < 2 nM | 4.17 | < 3 | < 100 | 6.21 |
| Nc1ncc2c3c1c(-c1ccc(C(=O)Nc4cc(C(F)(F)F)ccn4)cc1)nn3[C@@H]1CCC[C@H](C1)NC(=O)[C@@H]1CCN(C/C=C/2)C1 [Example 147] | < 5 | < 5 | < 100 | < 100 | < 5 | 5.28 | < 5 | 1.73 | < 5 | 10.42 | < 2 nM | 6.36 | < 3 | < 100 |  |
| C[C@H]1CC(=O)N[C@@H]2CCCC(C2)n2nc(-c3ccc(C(=O)Nc4cc(C(F)(F)F)ccn4)cc3)c3c(N)ncc(c32)/C=C/CCN1 [Example 150] | < 5 | < 5 | 100 to 1000 | 100 to 500 | < 5 | 2.52 | < 5 | 1.51 | < 5 | 2.48 | < 2 nM | 1.5 | < 3 | < 100 |  |
